From US20230382924A1, “MODULATORS OF CYSTIC FIBROSIS TRANSMEMBRANE CONDUCTANCE REGULATOR” (VERTEX PHARMACEUTICALS INCORPORATED, priority 2020, published 2023)
Where two headings read alike, the source gives them in different places.

Biological target: CFTR (Homo sapiens, UniProt P13569)
Experiment: Membrane Potential Dye, Enteroid Assay A
Assay type: cell-based
Details: for EC50: read-out: Ent. A EC50
How it was run: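 Signal is reported as % Activity relative to a triple CFTR modulator control (3 μM + 3 μM + 300 nM acute). Read-out: membrane potential fluorescence (20 μM methyl oxonol) monitored for 15 min after chloride-free stimulation. Dye loading took 25 min at room temperature in Bath 1 buffer containing CaCC blockers.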

Sequence of CFTR (P13569 with tags, fused parts or gaps DEL508-508): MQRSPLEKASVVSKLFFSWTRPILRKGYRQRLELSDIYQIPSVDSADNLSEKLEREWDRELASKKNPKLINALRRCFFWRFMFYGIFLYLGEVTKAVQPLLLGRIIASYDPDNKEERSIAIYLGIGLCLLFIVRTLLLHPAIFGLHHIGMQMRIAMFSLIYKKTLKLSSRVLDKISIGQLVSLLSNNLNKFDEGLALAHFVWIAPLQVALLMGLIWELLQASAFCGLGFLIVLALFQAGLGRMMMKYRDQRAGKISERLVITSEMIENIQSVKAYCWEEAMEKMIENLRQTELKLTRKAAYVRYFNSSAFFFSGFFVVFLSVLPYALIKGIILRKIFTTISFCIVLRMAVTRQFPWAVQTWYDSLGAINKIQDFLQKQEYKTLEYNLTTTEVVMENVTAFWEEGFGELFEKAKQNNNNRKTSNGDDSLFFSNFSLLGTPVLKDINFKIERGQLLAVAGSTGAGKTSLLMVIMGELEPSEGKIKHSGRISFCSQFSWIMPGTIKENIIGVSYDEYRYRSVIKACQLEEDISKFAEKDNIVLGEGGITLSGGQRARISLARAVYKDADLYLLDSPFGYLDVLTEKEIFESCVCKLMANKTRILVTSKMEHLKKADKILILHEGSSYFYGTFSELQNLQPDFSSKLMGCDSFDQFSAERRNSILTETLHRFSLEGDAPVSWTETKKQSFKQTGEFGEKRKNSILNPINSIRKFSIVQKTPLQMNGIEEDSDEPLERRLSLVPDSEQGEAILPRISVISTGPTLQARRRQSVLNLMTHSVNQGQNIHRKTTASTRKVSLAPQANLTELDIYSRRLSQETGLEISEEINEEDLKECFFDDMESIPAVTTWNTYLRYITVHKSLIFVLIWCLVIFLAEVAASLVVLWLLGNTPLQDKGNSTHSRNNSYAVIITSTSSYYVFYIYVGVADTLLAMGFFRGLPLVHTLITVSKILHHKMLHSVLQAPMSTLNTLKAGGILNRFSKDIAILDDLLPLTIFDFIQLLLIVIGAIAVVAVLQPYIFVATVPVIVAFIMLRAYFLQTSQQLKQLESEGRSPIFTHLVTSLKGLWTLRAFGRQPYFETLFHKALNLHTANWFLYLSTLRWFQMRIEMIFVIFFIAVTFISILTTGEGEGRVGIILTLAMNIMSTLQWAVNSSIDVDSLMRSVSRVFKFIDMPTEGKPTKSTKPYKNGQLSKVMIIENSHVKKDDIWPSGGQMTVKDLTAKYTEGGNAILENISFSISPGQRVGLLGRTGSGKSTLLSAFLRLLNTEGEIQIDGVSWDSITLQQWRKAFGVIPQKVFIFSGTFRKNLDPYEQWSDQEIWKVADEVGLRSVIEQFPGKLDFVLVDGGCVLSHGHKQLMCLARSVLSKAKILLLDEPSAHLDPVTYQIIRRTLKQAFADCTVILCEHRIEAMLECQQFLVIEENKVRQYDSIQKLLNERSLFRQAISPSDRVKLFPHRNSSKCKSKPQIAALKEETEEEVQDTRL

Cc1cccc(C)c1-c1cc2nc(n1)NS(=O)(=O)c1cccc(c1)C(=O)N[C@@H](CCC(C)(C)C)CO2 (single isomer, unassigned) [Compound 48]
Ent. A Max Activity (Table 8): + (+ is <30%) | EC50 (Table 8): < 1000 nM

Cc1cccc(C)c1-c1cc2nc(n1)NS(=O)(=O)c1ccccc1C(=O)N[C@H](C)[C@@H](c1ccc(C(C)(C)C)cc1)O2 [Compound 282]
Ent. A Max Activity (Table 9): + (+ is <30%)

Cc1cccc(C)c1-c1cc2nc(n1)NS(=O)(=O)c1cccc(c1)C(=O)NC(C(F)(F)F)CO2 (stereo not drawn) [Compound 171]
Ent. A Max Activity (Table 8): + (+ is <30%)

Cc1cccc(C)c1-c1cc2nc(n1)NS(=O)(=O)c1cccc(c1)C(=O)NC(CCC1(C(F)(F)F)CC1)CO2 (stereo not drawn) [Compound 92, 6-(2,6-dimethylphenyl)-2,2-dioxo-11-[2-[1-(trifluoromethyl)cyclopropyl]ethyl]-9-oxa-2λ^6-thia-3,5,12,19-tetrazatricyclo[12.3.1.14,8]nonadeca-1(18),4(19),5,7,14,16-hexaen-13-one]
Ent. A Max Activity (Table 8): +++ (+++ is >60%) | EC50 (Table 8): < 1000 nM

Cc1cccc(C)c1-c1cc2nc(n1)NS(=O)(=O)c1cccc(c1)C(=O)N[C@@H]1CCN(C3CC4(CCCC4)C3)C[C@H]1O2 (stereo in doubt) [Compound 385]
Ent. A Max Activity (Table 9): + (+ is <30%) | EC50 (Table 9): 3000 to 30000 nM

CCC(C)(C)C(=O)N1CC[C@H]2NC(=O)c3cccc(c3)S(=O)(=O)Nc3nc(cc(-c4c(C)cccc4C)n3)OC2C1 (stereo in doubt) [Compound 371]
Ent. A Max Activity (Table 9): ++ (++ is 30-60%) | EC50 (Table 9): 3000 to 30000 nM

Cc1cccc(C)c1-c1cc2nc(n1)NS(=O)(=O)c1cccc(c1)C(=O)NC1CC(CN(C(=O)OCc3ccccc3)C1)O2 (stereo not drawn) [Compound 200]
Ent. A Max Activity (Enteroid Assay A): ++ (++ is 30-60%) | EC50 (Enteroid Assay A): 3000 to 30000 nM

CCC(C)(C)c1ccc(C2CNC(=O)c3cccc(c3)S(=O)(=O)Nc3nc(cc(-c4c(C)cccc4C)n3)O2)cc1 (stereo not drawn) [Compound 153]
Ent. A Max Activity (Table 8): + (+ is <30%) | EC50 (Table 8): 3000 to 30000 nM

Cc1cccc(C)c1-c1cc2nc(n1)NS(=O)(=O)c1cccc(c1)C(=O)NC1CC(CN(CCC(C)(C)C)C1)O2 (single isomer, unassigned) [Compound 79, 5-(3,3-dimethylbutyl)-19-(2,6-dimethylphenyl)-2-oxa-15λ^6-thia-5,8,16,18,21-pentaazatetracyclo[15.3.1.13,7.110,14]tricosa-1(20),10,12,14(22),17(21),18-hexaene-9,15,15-trione]
Ent. A Max Activity (Enteroid Assay A): ++ (++ is 30-60%) | EC50 (Enteroid Assay A): < 1000 nM

Cc1cccc(C)c1-c1cc2nc(n1)NS(=O)(=O)c1cccc(c1)C(=O)NCC(c1ccc(C3CCC3)cc1)O2 (single isomer, unassigned) [Compound 13, 10-(4-Cyclobutylphenyl)-6-(2,6-dimethylphenyl)-2,2-dioxo-9-oxa-2λ^6-thia-3,5,12,19-tetrazatricyclo[12.3.1.14,8]nonadeca-1(18),4(19),5,7,14,16-hexaen-13-one]
Ent. A Max Activity (Table 9): + (+ is <30%) | EC50 (Table 9): < 1000 nM

COc1cccc(C2CNC(=O)c3cccc(c3)S(=O)(=O)Nc3nc(cc(-c4c(C)cccc4C)n3)O2)c1 (stereo not drawn) [Compound 158]
Ent. A Max Activity (Table 8): +++ (+++ is >60%) | EC50 (Table 8): < 1000 nM

Cc1cccc(C)c1-c1cc2nc(n1)NS(=O)(=O)c1cccc(c1)C(=O)NC1(CCN(CCC(C)(C)C)CC1)CO2 [Compound 86, 1′-(3,3-Dimethylbutyl)-6-(2,6-dimethylphenyl)-2,2-dioxo-spiro[9-oxa-2λ^6-thia-3,5,12,19-tetrazatricyclo[12.3.1.14,8]nonadeca-1(18),4(19),5,7,14,16-hexaene-11,4′-piperidine]-13-one]
Ent. A Max Activity (Table 9): +++ (+++ is >60%) | EC50 (Table 9): 1000 to 3000 nM

Cc1cccc(C)c1-c1cc2nc(n1)NS(=O)(=O)c1cccc(c1)C(=O)N[C@@H]1CCCCC1O2 (stereo in doubt) [Compound 487]
Ent. A Max Activity (Enteroid Assay A): +++ (+++ is >600%) | EC50 (Enteroid Assay A): < 1000 nM

Cc1cccc(C)c1-c1cc2nc(n1)NS(=O)(=O)c1cccc(c1)C(=O)NCC(c1ccc(Br)cc1)O2 (single isomer, unassigned) [Compound 19, 10-(4-bromophenyl)-6-(2,6-dimethylphenyl)-2,2-dioxo-9-oxa-2λ^6-thia-3,5,12,19-tetrazatricyclo[12.3.1.14,8]nonadeca-1(18),4(19),5,7,14,16-hexaen-13-one]
Ent. A Max Activity (Table 8): + (+ is <30%)

Cc1cccc(C)c1-c1cc2nc(n1)NS(=O)(=O)c1cccc(c1)C(=O)NCC1(CCN(C(=O)c3ccccc3)CC1)CO2 [Compound 474]
EC50 (Enteroid Assay A): 3000 to 30000 nM

Cc1cccc(C)c1-c1cc2nc(n1)NS(=O)(=O)c1cccc(c1)C(=O)N[C@@H]1CN(CCC3(C(F)(F)F)CC3)CC[C@H]1O2 [Compound 58, (3R,8R)-20-(2,6-Dimethylphenyl)-6-{2-[1-(trifluoromethyl)cyclopropyl]ethyl}-2-oxa-16λ^6-thia-6,9,17,19,22-pentaazatetracyclo[16.3.1.111,15.03,8]tricosa-1(21),11,13,15(23),18(22),19-hexaene-10,16,16-trione]
Ent. A Max Activity (Table 9): +++ (+++ is >60%) | EC50 (Table 9): < 1000 nM

Cc1cc(C(F)(F)F)n(-c2cc3nc(n2)NS(=O)(=O)c2cccc(c2)C(=O)N[C@H](CC(C)C)CO3)n1 [Compound 109, (11R)-6-[3-methyl-5-(trifluoromethyl)-1H-pyrazol-1-yl]-11-(2-methylpropyl)-9-oxa-2λ^6-thia-3,5,12,19-tetraazatricyclo[12.3.1.14,8]nonadeca-1(17),4,6,8(19),14(18),15-hexaene-2,2,13-trione]
Ent. A Max Activity (Table 8): + (+ is <30%) | EC50 (Table 8): < 1000 nM

Cc1cccc(C)c1-c1cc2nc(n1)NS(=O)(=O)c1cccc(c1)C(=O)NCC1(CCCCC1)CO2 [Compound 205]
Ent. A Max Activity (Enteroid Assay A): +++ (+++ is >600%) | EC50 (Enteroid Assay A): < 1000 nM

Cc1cccc(C)c1-c1cc2nc(n1)NS(=O)(=O)c1cccc(c1)C(=O)N[C@@H](CC1(C(F)(F)F)CC1)CO2 [Compound 288]
Ent. A Max Activity (Table 8): +++ (+++ is >60%) | EC50 (Table 8): < 1000 nM

CC(C)C[C@@H]1COc2cc(C3=CCC(C)CC3)nc(n2)NS(=O)(=O)c2cccc(c2)C(=O)N1 (stereo partly drawn) [Compound 324]
Ent. A Max Activity (Enteroid Assay A): ++ (++ is 30-60%) | EC50 (Enteroid Assay A): 1000 to 3000 nM

Cc1cccc(C)c1-c1cc2nc(n1)NS(=O)(=O)c1cc(ccn1)C(=O)N[C@H](CC1CCCCC1)CO2 [Compound 69, (11R)-11-(Cyclohexylmethyl)-6-(2,6-dimethylphenyl)-2,2-dioxo-9-oxa-2λ^6-thia-3,5,12,17,19-pentazatricyclo[12.3.1.14,8]nonadeca-1(17),4(19),5,7,14(18),15-hexaen-13-one]
Ent. A Max Activity (Table 8): +++ (+++ is >60%) | EC50 (Table 8): < 1000 nM

Cc1cccc(C)c1-c1cc2nc(n1)NS(=O)(=O)c1cccc(c1)C(=O)NCC(c1ccccc1)CO2 (stereo not drawn) [Compound 201]
EC50 (Enteroid Assay A): < 1000 nM

Cc1cccc(C2CNC(=O)c3cccc(c3)S(=O)(=O)Nc3nc(cc(-c4c(C)cccc4C)n3)O2)c1 (stereo not drawn) [Compound 404]
Ent. A Max Activity (Table 8): +++ (+++ is >60%) | EC50 (Table 8): < 1000 nM

Cc1cccc(C)c1-c1cc2nc(n1)NS(=O)(=O)c1cccc(c1)C(=O)NCC(c1ccc(CC(C)(C)C)cc1)O2 (stereo not drawn) [Compound 267]
Ent. A Max Activity (Table 8): +++ (+++ is >60%) | EC50 (Table 8): < 1000 nM

Cc1cccc(C)c1-c1cc2nc(n1)NS(=O)(=O)c1cccc(c1)C(=O)NCC(c1ccc3c(c1)OCCO3)O2 (stereo not drawn) [Compound 116]
Ent. A Max Activity (Table 8): +++ (+++ is >60%) | EC50 (Table 8): < 1000 nM

Cc1cccc(C)c1-c1cc2nc(n1)NS(=O)(=O)c1cccc(c1)C(=O)N[C@H](CC1CCCCC1)[C@@H](C1CC1)O2 [Compound 131]
Ent. A Max Activity (Table 9): +++ (+++ is >60%) | EC50 (Table 9): < 1000 nM

Cc1cccc(C)c1-c1cc2nc(n1)NS(=O)(=O)c1ccccc1C(=O)NCC(c1ccc(C(C)(C)C)cc1)O2 (stereo not drawn) [Compound 222]
Ent. A Max Activity (Table 9): + (+ is <30%)

Cc1cccc(C)c1-c1cc2nc(n1)NS(=O)(=O)[C@H]1CCCN(C1)C(=O)N[C@H](CC1CCCCC1)CO2 (stereo in doubt) [Compound 159]
Ent. A Max Activity (Table 8): + (+ is <30%)

Cc1cccc(C)c1-c1cc2nc(n1)NS(=O)(=O)c1cccc(c1)C(=O)N[C@@H](CC13CC4CC(CC(C4)C1)C3)CO2 (single isomer, unassigned) [Compound 111, 11-(1-adamantylmethyl)-6-(2,6-dimethylphenyl)-2,2-dioxo-9-oxa-2λ^6-thia-3,5,12,19-tetrazatricyclo[12.3.1.14,8]nonadeca-1(18),4(19),5,7,14,16-hexaen-13-one]
Ent. A Max Activity (Table 9): ++ (++ is 30-60%) | EC50 (Table 9): < 1000 nM

Cc1cccnc1-c1cc2nc(n1)NS(=O)(=O)c1cccc(c1)C(=O)N[C@H](CC(C)C)CO2 [Compound 108, (11R)-11-Isobutyl-6-(3-methyl-2-pyridyl)-2,2-dioxo-9-oxa-2λ^6-thia-3,5,12,19-tetrazatricyclo[12.3.1.14,8]nonadeca-1(18),4(19),5,7,14,16-hexaen-13-one]
Ent. A Max Activity (Table 9): ++ (++ is 30-60%) | EC50 (Table 9): 3000 to 30000 nM

Cc1cccc(C)c1-c1cc2nc(n1)NS(=O)(=O)c1cccc(c1)C(=O)N[C@H](COCc1ccccc1)CO2 [Compound 486]
Ent. A Max Activity (Enteroid Assay A): +++ (+++ is >600%) | EC50 (Enteroid Assay A): 1000 to 3000 nM

Cc1cccc(C)c1-c1cc2nc(n1)NS(=O)(=O)c1cccc(c1)C(=O)NC[C@@H](c1cccc(C(C)(C)C)c1)O2 [Compound 273]
Ent. A Max Activity (Table 8): +++ (+++ is >60%) | EC50 (Table 8): < 1000 nM

Cc1cccc(C)c1-c1cc2nc(n1)NS(=O)(=O)c1cccc(c1)C(=O)NCC(c1ccc(C3(C(F)(F)F)CC3)cc1)O2 (single isomer, unassigned) [Compound 10, 6-(2,6-dimethylphenyl)-2,2-dioxo-10-[4-[1-(trifluoromethyl)cyclopropyl]phenyl]-9-oxa-2λ^6-thia-3,5,12,19-tetrazatricyclo[12.3.1.14,8]nonadeca-1(18),4(19),5,7,14,16-hexaen-13-one]
EC50 (Table 8): < 1000 nM

Cc1cccc(C)c1-c1cc2nc(n1)NS(=O)(=O)c1cccc(c1)C(=O)N[C@@H]1CCCC[C@@H]1O2 [Compound 363]
Ent. A Max Activity (Enteroid Assay A): ++ (++ is 30-60%) | EC50 (Enteroid Assay A): 1000 to 3000 nM
